Source: PubChem BioAssay (NCI)
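Compound exposure: 48 hours, 5 concentrations, 96-well plates. At the TGI there is no net growth.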

Experiments:
Test in all cases: NCI-60 cell line screen, 48 h
786-0 renal = system: 786-0 renal
A498 renal = system: A498 renal
A549 NSCLC = system: A549 NSCLC
ACHN renal = system: ACHN renal
BT-549 breast = system: BT-549 breast
CAKI-1 renal = system: CAKI-1 renal
COLO 205 colon = system: COLO 205 colon
DU-145 prostate = system: DU-145 prostate
EKVX NSCLC = system: EKVX NSCLC
HCC-2998 colon = system: HCC-2998 colon
HCT-116 colon = system: HCT-116 colon
HCT-15 colon = system: HCT-15 colon
HL-60(TB) leukemia = system: HL-60(TB) leukemia
HOP-62 NSCLC = system: HOP-62 NSCLC
HOP-92 NSCLC = system: HOP-92 NSCLC
HS 578T breast = system: HS 578T breast
HT29 colon = system: HT29 colon
IGROV1 ovarian = system: IGROV1 ovarian
K-562 leukemia = system: K-562 leukemia
LOX IMVI melanoma = system: LOX IMVI melanoma
M14 melanoma = system: M14 melanoma
MALME-3M melanoma = system: MALME-3M melanoma
MCF7 breast = system: MCF7 breast
MDA-MB-231 breast = system: MDA-MB-231 breast
MDA-MB-435 = system: MDA-MB-435
MDA-N = system: MDA-N
NCI-H226 lung = system: NCI-H226 lung
NCI-H23 lung = system: NCI-H23 lung
NCI-H460 lung = system: NCI-H460 lung
NCI-H522 lung = system: NCI-H522 lung
NCI/ADR-RES ovarian = system: NCI/ADR-RES ovarian
OVCAR-3 ovarian = system: OVCAR-3 ovarian
OVCAR-4 ovarian = system: OVCAR-4 ovarian
OVCAR-5 ovarian = system: OVCAR-5 ovarian
OVCAR-8 ovarian = system: OVCAR-8 ovarian
PC-3 prostate = system: PC-3 prostate
RPMI-8226 leukemia = system: RPMI-8226 leukemia
RXF 393 renal = system: RXF 393 renal
SF-268 CNS = system: SF-268 CNS
SF-295 CNS = system: SF-295 CNS
SF-539 CNS = system: SF-539 CNS
SK-MEL-2 melanoma = system: SK-MEL-2 melanoma
SK-MEL-28 melanoma = system: SK-MEL-28 melanoma
SK-MEL-5 melanoma = system: SK-MEL-5 melanoma
SK-OV-3 ovarian = system: SK-OV-3 ovarian
SN12C renal = system: SN12C renal
SNB-19 CNS = system: SNB-19 CNS
SNB-75 CNS = system: SNB-75 CNS
SR leukemia = system: SR leukemia
SW-620 colon = system: SW-620 colon
TK-10 renal = system: TK-10 renal
U251 CNS = system: U251 CNS
UACC-257 melanoma = system: UACC-257 melanoma
UACC-62 melanoma = system: UACC-62 melanoma
UO-31 renal = system: UO-31 renal
KM12 colon = system: KM12 colon
MOLT-4 leukemia = system: MOLT-4 leukemia

Measured: TGI

COc1ccc(NC(=S)Nc2ccccc2)cc1
> 100 µM: 786-0 renal | A498 renal | A549 NSCLC | ACHN renal | BT-549 breast | CAKI-1 renal | COLO 205 colon | DU-145 prostate | EKVX NSCLC | HCC-2998 colon | HCT-116 colon | HCT-15 colon | HL-60(TB) leukemia | HOP-62 NSCLC | HOP-92 NSCLC | HS 578T breast | HT29 colon | IGROV1 ovarian | K-562 leukemia | LOX IMVI melanoma | M14 melanoma | MALME-3M melanoma | MCF7 breast | MDA-MB-231 breast | MDA-MB-435 | MDA-N | NCI-H226 lung | NCI-H23 lung | NCI-H460 lung | NCI-H522 lung | NCI/ADR-RES ovarian | OVCAR-3 ovarian | OVCAR-4 ovarian | OVCAR-5 ovarian | OVCAR-8 ovarian | PC-3 prostate | RPMI-8226 leukemia | RXF 393 renal | SF-268 CNS | SF-295 CNS | SF-539 CNS | SK-MEL-2 melanoma | SK-MEL-28 melanoma | SK-MEL-5 melanoma | SK-OV-3 ovarian | SN12C renal | SNB-19 CNS | SNB-75 CNS | SR leukemia | SW-620 colon | TK-10 renal | U251 CNS | UACC-257 melanoma | UACC-62 melanoma | UO-31 renal

O=C1CSC(c2ccc([N+](=O)[O-])cc2)N1c1nc(-c2ccc3c(c2)CCCC3)cs1 (stereo not drawn)
81.8 µM: SF-539 CNS
> 100 µM: 786-0 renal | A498 renal | ACHN renal | BT-549 breast | CAKI-1 renal | COLO 205 colon | DU-145 prostate | EKVX NSCLC | HCC-2998 colon | HCT-116 colon | HCT-15 colon | HL-60(TB) leukemia | HOP-62 NSCLC | HS 578T breast | HT29 colon | IGROV1 ovarian | K-562 leukemia | KM12 colon | LOX IMVI melanoma | MALME-3M melanoma | MCF7 breast | MDA-MB-231 breast | MDA-MB-435 | MDA-N | MOLT-4 leukemia | NCI-H226 lung | NCI-H23 lung | NCI-H460 lung | NCI-H522 lung | NCI/ADR-RES ovarian | OVCAR-3 ovarian | OVCAR-4 ovarian | OVCAR-5 ovarian | OVCAR-8 ovarian | PC-3 prostate | RPMI-8226 leukemia | RXF 393 renal | SF-268 CNS | SF-295 CNS | SK-MEL-2 melanoma | SK-MEL-28 melanoma | SK-MEL-5 melanoma | SN12C renal | SNB-19 CNS | SNB-75 CNS | SR leukemia | SW-620 colon | TK-10 renal | U251 CNS | UACC-257 melanoma | UACC-62 melanoma | UO-31 renal
